melting point [°C] | SMILES
51 to 52 | CN(C)c1cc2ccccn2n1
124 to 125 | O=C(Nc1ccc(OCCN2CCOCC2)c2ccccc12)OCC(Cl)(Cl)Cl
269 to 274 | Nc1cccc2c1CN(c1c(F)cc3c(=O)c(C(=O)O)cn(-c4ccc(F)cc4)c3c1F)C2
250 | CCSc1nc(C)n(Cc2ccc(-c3ccccc3C(=O)O)cc2)c1CO
112 | CO[C@H](C(=O)O)c1cccc([N+](=O)[O-])c1
120 to 121 | NS(=O)(=O)CCCCCSc1ccc2nccn2n1
75 to 77 | CCOC(=O)C(C)(C)c1nsc2ccc([N+](=O)[O-])cc12
160 to 162 | COc1ccc(-c2cn(C)cc(-c3cccc(C(F)(F)F)c3)c2=O)cc1
100 to 105 | O=C1c2cccc3cccc(c23)C1Br (stereo not given)
52 to 58 | CCOC(=NC(=O)c1ccc(-c2ccccc2)cc1)N1Cc2ccccc2-c2ccccc2C1
> 250 | Nc1[nH]nc(-c2ccc(F)cc2)c1-c1ccncc1
107 to 110 | CCOC(=O)c1cnc(-c2cc(N)ccc2OCC)[nH]c1=O
103 to 104 | COc1c(C)cc2c(c1C)C(C)(C)CN2C(=O)C(C)(C)C
175 | CC(=O)SCC(Cc1c(Cl)cccc1Cl)C(=O)NN1CCOCC1 (stereo not given)
150 to 152 | CC(=O)c1c(C)[nH]c(CC(C)C)c1C
> 250 | NS(=O)(=O)c1nnc(NC(=O)c2ccccc2O)s1
34 to 36 | CC(C)(C)OC(=O)N1CC(O)C(N=[N+]=[N-])C1 (stereo not given)
119 to 121 | COC(=O)[C@H](CSC(=O)N(C)C)NC(C)=O
118 to 121 | Cn1c(SCSC#N)nc2ccccc2c1=O
142 to 144 | CC(=O)CC[C@H](NC(=O)OCc1ccccc1)C(N)=O
127 to 128 | O=C(O)CCCc1ccc2sc3ccccc3c2c1
200 to 203 | Cc1c2c3c(ccc2nn1C)CCC3=CC#N
194 | Nc1ncnc2c1c(I)cn2C1CC(O)C(CO)O1 (stereo not given)
229 | COc1cc(C(=O)c2ncc3c(OC)cccn23)ccc1N

melting point [°C] | SMILES
228 to 229 | COc1c(Cl)ccc2c1C(O)(c1ccccc1Cl)C(=O)N2 (stereo not given)
169 to 171 | Cc1c(NC(=O)CC(C)(C)C)cc2c(c1C)OC(C)(C)C2(O)c1cccc(CO)c1 (stereo not given)
180 | COc1ccc(CN(C)CCCc2ccc(NC(=O)c3cccc4c(=O)c5cccc(OC)c5[nH]c34)cc2)cc1OC
142 to 144 | Cn1c(C(F)(F)F)ccc(-c2c(F)cc(Cl)c3oc(CBr)cc23)c1=O
165 to 167 | COCc1c(C(=O)OCCO)ncc2[nH]c3ccc(OCc4ccccc4)cc3c12
135 to 136 | NC(=O)Cc1c(CCN(Cc2ccccc2)Cc2ccccc2)[nH]c2ccccc12
220 to 222 | CC(C)(NC(=O)C(O)C(N)Cc1ccc(S(C)(=O)=O)cc1)C(=O)O (stereo not given)
212 | O=C(Nc1nc(C(F)(F)F)co1)C1c2ccccc2Oc2c(Cl)cccc21 (racemic)
225 to 226 | CC(C)c1cccc(C(C)C)c1NC(=O)NC1CCCCC1c1ccccc1 (stereo not given)
158 to 160 | CC(C)C(NC(=O)N(C)Cc1ccccn1)C(=O)N(C(=O)C(NC(=O)N(C)Cc1nccs1)C(C)C)C(Cc1ccccc1)C(O)CCCc1ccccc1 (stereo not given)
232 | O=C(O)C1CCN(Cc2ccc(Cl)c(Cl)c2)CC1
122 to 124 | Nc1ncccc1OCc1c(F)cc(F)cc1F
75 to 76 | COC(=O)CC(NC(=O)CC1CCCCC1)C(C)=O (stereo not given)
223 to 225 | O=C(NC(O)C(Cl)(Cl)Cl)c1cc([N+](=O)[O-])ccc1O (stereo not given)
105 to 107 | COc1ccc2cc([C@H](C)C(=O)OCC(=O)COC(=O)c3ccc(CO[N+](=O)[O-])cc3)ccc2c1
146 to 147 | NS(=O)(=O)Oc1ccc(I)cc1
112 to 114 | ONc1cccc(OCc2nc3ccccc3s2)c1
250 to 252 | CNC(=O)c1cc(C)ccc1NC(=O)c1ccc(O)cc1
122 to 123 | O=C(O)[C@H](Cc1ccc(C(F)(F)F)cc1)[C@@H](O)c1ccccc1F (racemic)
39 | CCCCCCc1cnc(-c2ccc(F)cc2)nc1
223 to 225 | CCCCn1c(CO)nc2c(N)nc3ccccc3c21
132 to 133 | C=CCn1c(=O)n(CCCCO)c2nc(N)nc(Cl)c21
103 to 106 | COc1cccc(COc2ccc(N)nn2)c1OC
88 to 90 | CN1CN(C)C(=O)N(C)C1=O

melting point [°C] | SMILES
221 to 222 | O=C(Cc1c(F)cccc1C(=O)O)Nc1cccc(/C=C/c2nc(C3CCC3)cs2)c1
185 to 187 | CCCCS(=O)(=O)Nc1nc(CN2CCN(C(c3ccccc3)c3ccccc3)CC2)cs1
123 to 125 | CC(C)c1cccc(-c2ccc(F)cc2)c1OCCOc1ccc(C(=O)C(=O)O)cc1
259 to 262 | Cc1cccc(Cc2ccc(-c3cnn4c(O)ncnc34)cc2C)c1
53 to 54 | CCCCCCCCCCCc1nccn1-c1nc(-c2ccc(Cl)cc2)c(CCCOc2ccccc2OC)o1
246 to 248 | Cc1ccc(-n2c3c(c(=O)c4cccnc42)CCO3)cc1
168 to 170 | CC(=O)[NH+]([O-])C[C@@H]1CN(c2ccc(N3CCN(S(C)(=O)=O)CC3)c(F)c2)C(=O)O1 (stereo not given in full)
104 to 107 | CCCn1c(COCc2ccc(OC)cc2)nc(C(C)C)c1Sc1cc(Cl)cc(Cl)c1
195 to 196 | NS(=O)(=O)c1cc2c(c(Cl)c1Cl)OC(CCl)C2 (stereo not given)
155 | CC(=O)Cn1cnc2c1c(=O)n(CC1CC1)c(=O)n2C1CCCC1
> 250 | O=c1[nH]c2cccc(OCCN3CCc4ccccc4C3)c2[nH]c1=O
151 to 152 | CCCn1nc(C(=O)O)cc1CC(C)(C)NC(=O)OC(C)(C)C
170 | CCOC(=O)COc1cc(C2C(C(=O)OC)=C(C)NC(C)=C2C(=O)OC)ccc1OC
185 to 195 | COc1cc(N2CCC(N3CCN(C)CC3)CC2)ccc1-c1nc2c(N[C@H]3[C@@H](C(N)=O)[C@@H]4C=C[C@H]3C4)ccnc2[nH]1
187 to 189 | Cc1ccc([N+](=O)[O-])cc1S(=O)(=O)n1c(Br)nc(Br)c1C
186 to 188 | Cc1cccc2ncc(C(=O)Nc3ccccc3)c(=O)n12
170 | COc1ccccc1-c1nc(N)ncc1-c1ccc(=O)n(C(C)C)n1
113 to 115 | CC(=O)c1ccc(NS(C)(=O)=O)c(Nc2ccc(F)cc2F)c1
120 to 123 | CC(=O)c1cc(NS(C)(=O)=O)ccc1F
172 to 173 | C/C(=C\c1ccc(C(=O)O)cc1)c1ccc2c(c1)OCCO2
172 to 174 | C[C@@H]1C[C@H](C)CN(C(=O)[C@@H]2Cc3ccccc3N2c2nccs2)C1
103 to 105 | OC1CCCCC1Oc1ccc(Oc2ccccc2)cc1 (stereo not given)
204 to 206 | Cn1c(C(=O)O)c(Oc2ccc(Cl)cc2N)c2ccccc21

SMILES | melting point [°C]
NC1CCc2cc3c(cc2C1)OCC3 (stereo not given) | 60
CC(C)NCC(O)c1ccccc1 (stereo not given) | 90
CC12C=CC(=O)C=C1C1OC1C1C2CCC2(C)C(=O)CCC12 (stereo not given) | 182 to 194
ClCc1cnc(Cl)cc1Cl | 55 to 56

Source: a melting point compilation (Tetko et al.; mined from patent text by program, amines drawn as free bases though some values may be those of a salt)
